Like-named read-outs stand apart in the source and are kept apart here.
How the values were obtained:
Brain somatic cells = type: cell-based, mice; settings: 1 week-old, after 1 week of stress treatment
Experimental: Exposure to external stimuli-stress treatment. To give a mechanical stress to mature cells, pasture pipette were heated and then stretched to create lumens approximately 50 microns in diameters, and then broken. Mature somatic cells were then triturated through these pipettes for 20 min, and cultured for 7 days. To provide a hypoxic stimulus to mature cells, cells were cultured in a 5% oxygen incubator for 3 weeks. An under nutrition stimulus was provided to mature cells, by culturing the cells in a basic culture medium for 3 weeks. To expose the mature cells to a physiological stress, they were treated with low pH (pH5.5) solution, and cultured for 7 days. Also, cells were given more serious damage. To create pores in mature cell membranes, cells were treated with SLO (Streptolysin O). […]
Cells were prepared according to standard protocols and suspended in 0.1% BSA/PBS on ice prior to FACS. […] Cells were sorted on a BD FACSAria SORP and analyzed on a BD LSRII with BD FACSDiva Software (BD Biosciences).

Fibroblast = assay: Percent of cells demonstrating pluripotent phenotype after stress treatment; type: cell-based, mice; settings: 1 week-old, after 1 week of stress treatment
Source text: (§1) Stress alteration of mature somatic cells procured from various adult tissues. To examine whether ACCs could be generated not only mature lymphocytes but also other types of somatic cells, brain, skin, muscle, fat, bone marrow, lung and liver were harvested from Oct4-GFP (GOF) mice^8. Cells were isolated from the tissue samples, dissociated into single cells, and treated with different physical and or chemical stress conditions. The efficiency of the process to alter the cells differed as a function of both the source of cells and the stress condition(s) to which the cells were exposed (FIG. 7A). The ability of stress to alter mature cells to express Oct4, differed depending on the derivation of cells, but stress was able to alter cells to express Oct4 to some degree in mature cells derived from all three germ layers (FIG. 7A). ACC colonies derived from any mature tissue expressed pluripotent markers, E-cadherin, Nanog, PCAM-1 and AP (data not shown), and ES specific marker genes (FIG. 7B). Significant physical and chemical stresses altered mature somatic cells to revert to a stem cell state, despite of the source of tissues and derivation of the germ layers.
(§2) Exposure to external stimuli-stress treatment. To give a mechanical stress to mature cells, pasture pipette were heated and then stretched to create lumens approximately 50 microns in diameters, and then broken. Mature somatic cells were then triturated through these pipettes for 20 min, and cultured for 7 days. To provide a hypoxic stimulus to mature cells, cells were cultured in a 5% oxygen incubator for 3 weeks. An under nutrition stimulus was provided to mature cells, by culturing the cells in a basic culture medium for 3 weeks. To expose the mature cells to a physiological stress, they were treated with low pH (pH5.5) solution, and cultured for 7 days. Also, cells were given more serious damage. To create pores in mature cell membranes, cells were treated with SLO (Streptolysin O).
(§3) SLO-treated cells were incubated in HBSS containing 10 μg/mL SLO at 37° C. for 50 min and then cultured in culture medium without SLO for 7 days. Cells exposed to under-nutrition stress were cultured in basal medium for 2 to 3 weeks. […] Cells exposed to “Ca” stress were cultured in culture medium containing 2 mM CaCl2) for 2 weeks.
(§4) Fluorescence-Activated Cell Sorting and Flow Cytometry. Cells were prepared according to standard protocols and suspended in 0.1% BSA/PBS on ice prior to FACS. PI (BD Biosciences) was used to exclude dead cells. Cells were sorted on a BD FACSAria SORP and analyzed on a BD LSRII with BD FACSDiva Software (BD Biosciences).

Fat somatic cells = assay: as above; type: cell-based, mice; settings: 1 week-old, after 1 week of stress treatment
Source text: as §1, §2, §3, §4

Lung somatic cells = assay: as above; type: cell-based, mice; settings: 1 week-old, after 1 week of stress treatment
Source text: as §1, §2, §3, §4

Muscle somatic cells = assay: as above; type: cell-based, mice; settings: 1 week-old, after 1 week of stress treatment
Source text: as §1, §2, §3, §4

[1] = test system: Bone Marrow somatic cells; assay: as above; type: cell-based, mice; settings: 1 week-old, after 1 week of stress treatment
Source text: as §1, §2, §3, §4

NK1-R [2] = type: in vivo, rat; settings: for IC50: read-out: IC50, tactile hyperalgesia
Experimental: (§5) The highly specific cytotoxin SSP-SAP (20 uL, 1 uM) was injected into the intrathecal (i.t.) space of the male rat spinal cord in order to ablate a large majority of the neurokinin-1 receptor (NK1R)-expressing neurons. Two to 3 weeks later the normally robust hyperalgesic responses to injection of capsaicin (10 uL, 0.1%) in the plantar hindpaw, consisting of mechanical hyperalgesia to stimulation by von Frey filaments and thermal hyperalgesia appearing as a shortening of the latency of withdrawal to a radiant heat source, were almost absent. […] It thus appears that STAP stem cells can restore normal function after specific spinal neuronal loss and present a model for a therapeutic approach to spinal cord injury.
(§6) Adult male S-D rats were first handled for 4-5 days to familiarize them with the test arena, to minimize stress-induced analgesia, and to obtain Naïve and initial Baseline behavioral data. Tactile responsiveness was determined by probing the plantar surface of one hindpaw with a 15 g von Frey filament (VFH), 10 times every 3 secs. Baseline sensitivity, with no treatments and no capsaicin equaled ˜1-2 paw withdrawals per 10 probes. Thermal sensitivity was indicated by the latency for paw withdrawal from a radiant heat source (Hargreaves method: cutoff time set at 18 sec.). Baseline latency ˜16 sec. Before any intrathecal injections, the Naïve rats' responses to capsaicin injection into the hindpaw were determined to be: Tactile: 6 withdrawals/10 VFH probes, and Thermal: 6 sec latency.

NK1-R [3] = type: in vivo, rat
Experimental: as §5, §6

NK1-R [4] = target: T1, NK1-R (Rattus norvegicus, UniProt P14600); type: in vivo; settings: naïve rats (and rats that received Blank-SAP followed by stem cells, not shown); 30 uL i.t. injection; read-out: IC50, thermal hyperalgesia
T1 construct: from tissue; host or cells: spinal cord of living adult male Sprague-Dawley rats (in vivo, intrathecal dosing)
T1 sequence (P14600 whole entry): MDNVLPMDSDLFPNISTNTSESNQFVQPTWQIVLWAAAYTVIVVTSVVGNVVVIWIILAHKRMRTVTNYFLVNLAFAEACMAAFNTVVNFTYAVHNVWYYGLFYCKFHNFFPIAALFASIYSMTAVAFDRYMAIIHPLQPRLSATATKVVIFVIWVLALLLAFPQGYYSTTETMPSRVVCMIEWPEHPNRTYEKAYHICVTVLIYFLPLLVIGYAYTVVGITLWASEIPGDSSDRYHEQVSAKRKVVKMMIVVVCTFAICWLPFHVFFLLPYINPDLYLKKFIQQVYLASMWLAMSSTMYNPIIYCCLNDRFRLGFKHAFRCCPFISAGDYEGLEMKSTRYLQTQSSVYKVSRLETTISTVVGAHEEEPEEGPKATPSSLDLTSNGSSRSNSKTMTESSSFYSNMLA
Experimental: as §5, §6

NK-1R = type: in vivo, rat
Experimental: as §5
as §6, with “Thermal sensitivity was indicated by the latency for paw withdrawal from a radiant heat source (Hargreaves method: cutoff time set at 18 sec.). Baseline latency ˜16 sec.” left out, “latency. […]” for “latency.”

mature somatic cells = assay: STAP cell generation with low pH solution containing ATP; type: cell-based; settings: low pH solution containing ATP versus pH alone
Experimental: When this solution is used in combination with mechanical trituration of mature cells, the results were even more profound. Consequently, described herein is a protocol which incorporates these findings to increase the efficacy of generating STAP cells.
A1. Make a low pH HBSS solution containing ACT as follows and then set aside for use in step A4. […] The pH of this solution is about 3.0.
Place 5 mL of HBSS (with phenol red) [Life Technologies, 14170-161] into a 15 mL tube. Place a clean pH sensor into the HBSS. Titrate in the ACT stock solution, drop by drop, into the HBSS until the desired pH of, e.g., 5.0 is obtained. Mix the solution regularly to ensure that the measurement is accurate.
A4. […] In some embodiments, a volume of 2-3 ml of the cell suspension in a 50 ml tube can be used.

| Compound | Percent of cells demonstrating pluripotent phenotype (Brain somatic cells) [%] | Percent of cells demonstrating pluripotent phenotype (Fibroblast) [%] | Percent of cells demonstrating pluripotent phenotype (Fat somatic cells) [%] | Percent of cells demonstrating pluripotent phenotype (Lung somatic cells) [%] | Percent of cells demonstrating pluripotent phenotype (Muscle somatic cells) [%] | Percent of cells demonstrating pluripotent phenotype [1] [%] | also measured |
| --- | --- | --- | --- | --- | --- | --- | --- |
| streptolysin O [SLO] | 10.3 | 15.2 | 32.8 | 18.4 | 20.5 | 13.2 |  |
| [Ca+2].[Cl-].[Cl-] [Ca, CaCl2] | 0.8 | 3.5 | 2.7 | 1.3 | 1.5 | 1.2 |  |
| FC(F)(F)c1cc(CO[C@H]2CCCN[C@H]2c2ccccc2)cc(C(F)(F)F)c1 [L-733,060] |  |  |  |  |  |  | IC50 (NK1-R [2]; naïve rats (and rats that received Blank-SAP followed by stem cells, not shown), 30 uL i.t. injection): ~300 µM; IC50 (NK1-R [2]; stem cell-restored rats, i.t. injection): ~30 µM; IC50 (NK1-R [3]; stem cell-restored rats, i.t. injection, read-out: IC50, thermal hyperalgesia): ~5 µM; IC50 (NK1-R [4]): ~300 µM; Enhancement of potency for inhibition of capsaicin hyperalgesia (NK-1R; STAP stem cell restored rats over Naïve rats or rats that received Blank-SAP): 10-60 times; Inhibition of the restored hyperalgesic response (NK-1R; STAP stem cell-restored rats, i.t. injection at 300 uM): fully inhibited |
| Nc1ncnc2c1ncn2[C@@H]1O[C@H](COP(=O)([O-])OP(=O)([O-])OP(=O)(O)O)[C@@H](O)[C@H]1O.O.[Na+].[Na+] [ATP, Adenosine 5′ Triphosphate Disodium Salt Hydrate] |  | 25.10 | 79.6 | 9.8 | 68.4 | 12.3 | Efficacy of conversion to STAP cells (mature somatic cells): dramatically increased the efficacy of this conversion |
| COc1cc(CNC(=O)CCCC/C=C/C(C)C)ccc1O [capsaicin] |  |  |  |  |  |  | Tactile response to capsaicin injection into the hindpaw (NK1-R [2]; Naïve rats, before any intrathecal injections, 15 g von Frey filament): 6 withdrawals/10 VFH probes; Thermal response to capsaicin injection into the hindpaw, latency (NK1-R [3]; Naïve rats, before any intrathecal injections, radiant heat, cutoff 18 sec): 6 s |

— patent US11242508B2, “Methods relating to pluripotent cells” (priority 2014, dated 2022)
